Experimental data from patent US11471462B2, “Compositions and methods for detecting and treating diabetes” (THE BROAD INSTITUTE, INC., priority 2016, dated 2022).
Like-named read-outs stand apart in the source and are kept apart here. Residues, ends and D or L forms follow the SMILES beside them. *: point of attachment. Cbz = O=C(OCc1ccccc1)*

Columns and labels:
panel of 260 kinases = details: concentrations up to 10 μmol/L, cited from earlier work
SLC16A1 [1] = test: Compound treatment, SLC16A1 expression by ddPCR in primary human hepatocytes; type: cell-based; details: vs DMSO
Experimental: (§1) SLC16A11 (denoted by A11 when normalized by TBP and A11* for HPRT1), SLC16A13 (A13), and SLC16A1 (A1) in comparison with DMSO treated cells.
(§2) Primary human hepatocytes were purchased from Bioreclamation IVT. Hepatocyte lot used was BHL. Cells were thawed and immediately resuspended in CP media (Bioreclamation IVT) supplemented with torpedo antibiotic (Bioreclamation IVT). Cell concentration and viability were assessed prior to use. Cells were grown in a humidified CO2 incubator, at 37° C.
(§3) SNU761 and NCIH716 cells were plated into 96 well plates at a density of 20,000 cells per well. Hepatocytes were plated into collagen coated 96 well plates (Corning, 354408) at a density of 50,000 cells per well. After 24 hours, cells were treated with compounds at a final concentration of 10 μM or vehicle control for the appropriate amount of time. […]
(§4) RNA was DNase treated and converted into cDNA using the High-Capacity RNA-to-cDNA kit (Thermo Fisher Scientific). The following FAM-labeled TaqMan Real-Time PCR assays (Thermo Fisher Scientific) were used to quantify gene expression: SLC16A11 (Hs00601062_g1), SLC16A13 (Hs00416832_m1), SLC16A1 (Hs01560299_m1). […] Droplets were generated and analyzed using a QX200 Droplet Generator and Reader system (BioRad). Data was extracted using QuantaSoft (BioRad) and analyzed using Microsoft Excel.

SLC16A11 [2] = test: Compound treatment, SLC16A11 expression by ddPCR in primary human hepatocytes; type: cell-based; details: vs DMSO
Experimental: as §1, §2, §3, §4

SLC16A1 [3] = test: Compound treatment, SLC16A1 expression by ddPCR in NCIH716 cells; type: cell-based, human; details: 10 μM for 24 hours
Experimental: (§5) FIGS. 14A-14D provide graphs showing that mTOR inhibitors increase SLC16A11, but not SLC16A1 transcript levels. […] SLC16A11 (FIGS. 14A and 14B) and SLC16A1 (FIGS. 14C and 14D) expression was then assessed using droplet digital PCR (ddPCR). Bar plots depict relative fold-changes with respect to DMSO and error bars and standard deviations. Expression is normalized to housekeeping genes TBP or HPRT1.
(§6) A small number of the compounds that made the strongest positive connections to the SLC16A11 gene expression signature were selected and tested. […] Methotrexate was also included, which had been annotated as a dihydrofolate reductase inhibitor. SNU761 cells (derived from a human hepatocellular carcinoma) and NCIH716 cells (derived from a human cecum adenocarcinoma), which both express SLC16A11, were treated with the compounds. […]
as §4

SLC16A11 [4] = test: Compound treatment, SLC16A11 expression by ddPCR in SNU761 cells; type: cell-based, human; details: SNU761 cells
How it was run: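 SNU761 hepatocellular carcinoma cells, plated 24 h, treated with compounds at 10 μM final or vehicle, with treatment times matching the LINCS dataset. SLC16A11 mRNA quantified by TaqMan droplet digital PCR, normalized to TBP or HPRT1.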

SLC16A1 [5] = test: Compound treatment, SLC16A1 expression by ddPCR in SNU761 cells; type: cell-based, human; details: 10 μM for 24 hours
Experimental: as §5, §6, §4

SLC16A11 (A11) = test: ddPCR based screening assay for modulators of SLC16A11 expression (Z′); type: cell-based, human; details: SNU 761 cells; compound as positive control
Source text: As detailed herein above, SLC16A11 (A11) belongs to a family of monocarboxylate transporters. Expression of A11 was studied in SNU 761 cell lines. These liver cancer cells are ideal for studying SLC16A11 expression because A11 is expressed in higher quantity in liver cells, although expression of the gene in all tissues is extremely low. The 5 SNP risk haplotype causes lowered expression and interferes with protein-protein interactions between A11 and a cofactor protein, indicating loss of function. Therefore, increasing A11 expression in individuals with the risk haplotype is likely beneficial.
The quality of an assay can be quantified by Z′, a measure of how well the assay can differentiate between the positive and negative controls. Using the formula: […]
First the cells were treated with inhibitor compounds, their RNA was extracted, and that RNA was used as a template to create DNA. Then, the DNA was quantified using droplet digital PCR (ddPCR), analyzed and quantified using QuantaSoft™ (BioRad). […]
From the QuantaSoft scoring of each droplet, the means and standard deviations of SLC16A11 expression levels was determined in response to compound treatment. […] Points in light gray had the gene of interest and were scored as positive (FIG. 17C). SLC16A11 was scored in the graph. […]

SLC16A13 = test: Compound treatment, SLC16A13 expression by ddPCR in primary human hepatocytes; type: cell-based; details: vs DMSO
Experimental: as §1, §2, §3, §4

SLC16A11 [6] = test: Compound treatment, SLC16A11 expression by ddPCR in NCIH716 cells; type: cell-based, human; details: same concentrations and treatment times as LINCS
Experimental: A small number of the compounds that made the strongest positive connections to the SLC16A11 gene expression signature were selected and tested. […] Methotrexate was also included, which had been annotated as a dihydrofolate reductase inhibitor. SNU761 cells (derived from a human hepatocellular carcinoma) and NCIH716 cells (derived from a human cecum adenocarcinoma), which both express SLC16A11, were treated with the compounds. The same compound concentrations and treatment times were used as in the LINCS dataset experiments. […] For normalization, a different housekeeper gene, HPRT1, was used and obtained similar results with the mTOR inhibitors (FIGS. 14A and 14B).
SNU761 (human hepatocellular carcinoma) and NCIH716 (human cecum adenocarcinoma) were cultured in RPMI Medium 1640 supplemented with 10% Fetal Bovine Serum (FBS), 100 μg/ml Streptomycin and 100 U/ml Penicillin. Cells were grown in a humidified CO2 incubator, at 37° C.
For the unbiased approach taken to investigate the compounds that connected to the SLC16A11 gene expression signature, compounds were obtained from compound management at the Broad Institute.
SNU761 and NCIH716 cells were plated into 96 well plates at a density of 20,000 cells per well. Hepatocytes were plated into collagen coated 96 well plates (Corning, 354408) at a density of 50,000 cells per well. After 24 hours, cells were treated with compounds at a final concentration of 10 μM or vehicle control for the appropriate amount of time.
At the time of collection, cells in 96 well plates were lysed by directly adding 50 μL of RLT buffer (Qiagen). […]
as §4

SLC16A11 protein = test: Proteasomal degradation: SLC16A11 protein levels by Western blot; type: cell-based, human; details: HuH7 cells stably expressing SLC16A11^REF-V5; 5 μM for 3 hrs
Experimental: FIG. 5D (top panel) provides two Western blots showing that SLC16A11 is degraded by the proteasome and has a short half-life relative to other SLC16 family members. […] HEK293T cells expressing V5-tagged SLC16A11^REF, SLC16A13, or SLC16A1 were treated with cycloheximide (10 μg/mL) for the indicated times. Note that the SLC16A11, SLC16A13, and SLC16A1 images are from different exposure times. […] HuH7 cells stably expressing SLC16A11^REF-V5 were treated with MG132 (5 μM) or cyclohexamide for 3 hrs. FIG. 5D (bottom panel) provides Western blot showing SLC16A11 and BSG co-immunoprecipitations. (5D-A-5D-C): Co-immunoprecipitation of SLC16A11 and BSG confirms the reduced interaction between SLC16A11^T2D and BSG in HEK293T cells. BSG is glycosylated and runs as multiple bands by reducing SDS-PAGE. Molecular weight markers (kDa) are indicated. (5D-A): Interaction of BSG-V5 with immunoprecipitated SLC16A11-HA. (5D B): Interaction of SLC16A11-HA with immunoprecipitated BSG-V5. (C) Interaction of endogenous BSG with immunoprecipitated SLC16A11-HA. […]
Total protein concentration was measured using a BCA assay (Thermo Fisher Scientific) and equal quantities of protein were loaded on each gel. […] Signals were detected with HRP-conjugated secondary antibodies, followed by chemiluminescent detection and autoradiography. […]

COc1ccc(-c2ccc3c(N4CCOC[C@@H]4C)nc(N4CCOC[C@@H]4C)nc3n2)cc1CO [AZD-8055, [5-[2,4-Bis((3S)-3-methylmorpholin-4-yl)pyrido[2,3-d]pyrimidin-7-yl]-2-methoxyphenyl]methanol]
activity against a panel of 260 kinases (panel of 260 kinases): not show significant activity | activity against a panel of 260 kinases (panel of 260 kinases; listed as AZD8055): no significant activity | SLC16A1 expression (SLC16A1 [1]): decreased | SLC16A11 expression (SLC16A11 [2]): increase SLC16A11 expression | SLC16A1 expression with respect to DMSO (SLC16A1 [3]): slight decrease | SLC16A11 (A11) transcript levels, dose response curve (SLC16A11 [4]; FIG. 16 top panel): increase | SLC16A11 transcript levels, compound treated compared to DMSO treated cells (SLC16A11 [4]; same concentrations and treatment times as LINCS, ddPCR): about 3 fold | avg_fc (SLC16A11 expression, compound treated vs DMSO treated cells) (SLC16A11 [4]; same doses and treatment times as in the LINCS dataset): 4.253 | increase in SLC16A11 expression, compound treated compared to DMSO treated cells (SLC16A11 [4]; unbiased test of 59 top and 20 middle LINCS compounds, LINCS doses and times): ~4 fold | SLC16A1 expression with respect to DMSO (SLC16A1 [5]): slight decrease | A11 expression in manual ddPCR assay (SLC16A11 (A11)): increased | SLC16A13 expression (SLC16A13): decreased | SLC16A11 transcript levels, compound treated compared to DMSO treated cells (SLC16A11 [6]): about 3 fold

CC(C)C[C@@H](C=O)NC(=O)[C@H](CC(C)C)NC(=O)[C@H](CC(C)C)NC(=O)OCc1ccccc1 [MG132] (Cbz-Leu-Leu-Leu-aldehyde)
SLC16A11 protein levels (SLC16A11 protein): increased
